From US5284871A, “Oxygen removal” (priority 1990, dated 1994)

Columns and labels:
E. coli = experiment: Growth of E. coli in nutrient broth with and without sodium ascorbate and metals; assay type: cell-based; set-up: Growth of E. coli in nutrient broth: unit not given here; details: 25° C.; for Growth of E. coli in nutrient broth: sodium ascorbate 0.2%, metal 88 μM
Method: (§1) To determine the antimicrobial effects of Oxysorb, 10 ml of broth in 16×100 screw-capped tubes were inoculated with diluted, overnight cultures to achieve an initial population of 100 to 1000 cells/ml. Nutrient broth was used for E. coli and Pseudomonas fluorescens; fluid thioglycollate medium was used for Clostridium sporogenes. Following inoculation, sodium ascorbate was added at a level of 0.2%, then 88 μM metal salt (copper gluconate, cobalt chloride, or ferric chloride). Ascorbate, copper, cobalt, and iron solutions were prepared and filter sterilized just prior to use. Tubes were incubated at 25° C. with caps tightened, unless they were placed in anaerobic (Gas Pak) jars. Anaerobically incubated tubes had loose caps to allow for generation of an anaerobic environment in the tube headspace. Samples from two individual tubes were plated periodically.

Pseudomonas fluorescens = experiment: Growth of Pseudomonas fluorescens in nutrient broth with and without sodium ascorbate and metals; assay type: cell-based; details: 25° C.; for Growth of Pseudomonas fluorescens in nutrient broth: sodium ascorbate 0.2%, metal 88 μM; for effect on the growth of Pseudomonas fluorescens: nutrient broth
Method: as §1

[1] = Dissolved oxygen consumption measured with a Clark oxygen electrode; assay type: physicochemical; details: for oxygen utilization by one component alone / effect of protein on the rate of oxygen removal by Oxysorb: pH 7.4; for effect of chelating agent on oxygen removal by Oxysorb: 1 mM chelating agent, 100 μM copper gluconate, 10 mM sodium ascorbate; for reducing agent in copper-mediated oxygen removal: 1 mM reducing agent, 100 micromolar copper gluconate; for effect of protein on the rate of oxygen removal by Oxysorb: 0.2% ascorbic acid, 40 ppm copper gluconate, with and without 2 mM glycine
Method: The oxygen tension was measured in 1 mM sodium ascorbate and 50 mM Tris, pH 7.4 at 25° C. using a Clark oxygen electrode.
Initial rates were measured in 50 micromolar copper sulfate, 1 mM sodium ascorbate, and 50 mM Tris, pH 7.4, at 25° C.
The initial rates were determined in 50 micromolar copper sulfate, 1 mM sodium ascorbate, and 50 mM Tris, pH 7.4 at 10° C., 15° C., 20° C., 25° C., 30° C., 35° C., and 40° C.
The rate of O2 consumption at 25° C. in 10 mM sodium ascorbate, 100 micromolar copper gluconate, 50 mM Tris, pH 7.4, and 1 mM chelating agent was monitored using a Clark electrode.
The rate of O2 consumption at 25° C. in 10 mM sodium ascorbate, 50 mM Tris, pH 7.4, and 100 micromolar transition metal was monitored using a Clark electrode.
The rate of O2 consumption at 25° C. in 100 micromolar copper gluconate, 50 mM Tris, pH 7.4, and 1 mM reducing agent was monitored using a Clark electrode.
Increasing amounts of ovalbumin in the absence and presence of glycine were added to the Oxysorb system and the rate of O2 consumption at 25° C. was monitored using a Clark electrode.
The chelating agents used for this experiment were glycine, L-histidine, phytic acid, and EDTA. Purified water and Tris were dispensed into the vial, and then 1 mM chelating agent and 100 μM copper gluconate were added. Upon stabilization of the oxygen electrode, the ascorbic acid was introduced and the reaction quickly took place.
Another experiment was designed to substitute a variety of transition metals and reducing agents in place of copper and ascorbate. The transition metals were ferric chloride, manganese sulfate, cobalt chloride, and chromium chloride. The final concentration of these metals was 100 micromolar in 10 mM ascorbic acid and 50 mM Tris buffer, pH 7.4. To start the reaction, the metal was added to these solution, and the removal of dissolved oxygen was monitored using a Clark electrode.
The reducing agents substituted for ascorbic acid were sodium sulfite, cysteine, and catechol. The order of addition was purified water, Tris, and 1 mM reducing agent. When the electrode stabilized, the copper gluconate was added.
Experiments were conducted to determine the effect of protein on the reaction of the Oxysorb system. Using a Clark electrode, the oxygen consumption was measured in solutions containing 50 mM Tris, pH 7.4, 0.2% ascorbic acid, 40 ppm copper gluconate, variable amounts of ovalbumin, with and without 2 mM glycine. The order of addition was water, Tris, glycine, copper gluconate, ovalbumin, and ascorbic acid.

[2] = system: polyphenol oxidase activity in potatoes; experiment: Browning of pureed potato; details: refrigerated, seven days
Text: A control of water and potato was pureed in a blender and placed into a screw top jar, filled to overflowing to minimize headspace. The same was done to a sample of potato and 40 ppm copper gluconate and 0.1% ascorbic acid in water. The jars were refrigerated and inverted frequently to disperse any foam formed.

[3] = system: microorganisms in potato water; experiment: Microbiological evaluation of potato water; details: room temperature
Method: Another experiment was conducted to determined if the system of the present invention could delay or prevent textural degradation of potatoes stored in water. Raw potatoes were peeled, cubed, and immersed in water and in solutions of 40 ppm copper gluconate and 0.1% or 0.5% ascorbic acid. The samples were kept in uncovered glass mason jars at room temperature.

[4] = Oxidation of ascorbic acid to dehydroascorbic acid, monitored spectrophotometrically; assay type: physicochemical; details: 50 micromolar ascorbic acid, 1 micromolar Cu^2+, pH 7.4, 25° C.; 1000 U/ml catalase, 25 U/ml SOD
Method: The rate of oxidation at 25° C. in 50 mM Tris, pH 7.4, was monitored spectrophotometrically. […] The rate of oxidation at 25° C. in 50 mM Tris, pH 7.4, was monitored spectrophotometrically. […] Both reactions were carried out at 25° C. in 50 mM Tris, pH 7.4.

yeast = experiment: Yeast growth at 25° C. with the oxygen scavenging system; assay type: cell-based; details: 4-day period, 0.004% copper gluconate, 0.2% sodium ascorbate
[5] = anaerobic incubation (Gas Pak jar)

With `O=C1O[C@H]([C@@H](O)CO)C([O-])=C1O.[Na+]` [Ascorbate, sodium ascorbate] the “Growth of E. coli in nutrient broth” value (E. coli; Time 0 days) was 350, the “Growth of E. coli in nutrient broth” value (E. coli; Time 0.25 days) was 4600 and the “Growth of E. coli in nutrient broth” value (E. coli; Time 1 day) was 1.6 × 10^8. For the same molecule, the “Growth of E. coli in nutrient broth” value (E. coli; Time 2 days) was 4.6 × 10^8, the “Growth of E. coli in nutrient broth” value (E. coli; Time 5 days) was 3.8 × 10^8 and the “effect on the growth of E. coli” value (E. coli; [5]) was “slightly reduced the maximum population”. For the same molecule, the “effect on the growth of E. coli” value (E. coli; sealed tubes, nutrient broth) was “little effect”, the “Growth of Pseudomonas fluorescens in nutrient broth” value (Pseudomonas fluorescens; Time 0 days) was 160 and the “Growth of Pseudomonas fluorescens in nutrient broth” value (Pseudomonas fluorescens; Time 0.25 days) was 170. For the same molecule, the “Growth of Pseudomonas fluorescens in nutrient broth” value (Pseudomonas fluorescens; Time 1 day) was 4.7 × 10^7, the “Growth of Pseudomonas fluorescens in nutrient broth” value (Pseudomonas fluorescens; Time 4 days) was 7.2 × 10^8 and the “Growth of Pseudomonas fluorescens in nutrient broth” value (Pseudomonas fluorescens; Time 6 days) was 2.7 × 10^8. The “oxygen utilization by one component alone” value [1] was “No oxygen utilization”.

With `[Cl][Co][Cl]` [Co^2+, cobalt chloride] the “Growth of E. coli in nutrient broth” value (E. coli; Time 0 days) was 430, the “Growth of E. coli in nutrient broth” value (E. coli; Time 0.25 days) was 690 and the “Growth of E. coli in nutrient broth” value (E. coli; Time 1 day) was 8.1 × 10^5. The “Growth of E. coli in nutrient broth” value (E. coli; Time 2 days) was 2.2 × 10^6, the “Growth of E. coli in nutrient broth” value (E. coli; Time 5 days) was 4.5 × 10^8 and the “effect on the growth of E. coli” value (E. coli; sealed tubes, nutrient broth) was “Growth was slowed but not stopped”. For the same molecule, the “Growth of Pseudomonas fluorescens in nutrient broth” value (Pseudomonas fluorescens; Time 0 days) was 150, the “Growth of Pseudomonas fluorescens in nutrient broth” value (Pseudomonas fluorescens; Time 0.25 days) was 65 and the “Growth of Pseudomonas fluorescens in nutrient broth” value (Pseudomonas fluorescens; Time 1 day) was 1.9 × 10^6. For the same molecule, the “Growth of Pseudomonas fluorescens in nutrient broth” value (Pseudomonas fluorescens; Time 4 days) was 5.6 × 10^8, the “Growth of Pseudomonas fluorescens in nutrient broth” value (Pseudomonas fluorescens; Time 6 days) was 5.5 × 10^7 and the “effect on the growth of Pseudomonas fluorescens” value (Pseudomonas fluorescens) was “slowed the growth”.

In the case of `O=C(O)CN(CCN(CC(=O)O)CC(=O)O)CC(=O)O` [EDTA], the “effect of chelating agent on oxygen removal by Oxysorb” value (“effect of chelating agent” below) ([1]; pH 7.4, 25° C.) is reported as “almost completely inhibited”.

For `[Cl][Fe]([Cl])[Cl]` [Fe^3+, ferric chloride], the “Growth of E. coli in nutrient broth” value (E. coli; Time 0 days) was 420, the “Growth of E. coli in nutrient broth” value (E. coli; Time 0.25 days) was 6400 and the “Growth of E. coli in nutrient broth” value (E. coli; Time 1 day) was 2.1 × 10^8. For the same molecule, the “Growth of E. coli in nutrient broth” value (E. coli; Time 2 days) was 3.4 × 10^8, the “Growth of E. coli in nutrient broth” value (E. coli; Time 5 days) was 1.5 × 10^8 and the “effect on the growth of E. coli” value (E. coli; sealed tubes, nutrient broth) was “no effect”. For the same molecule, the “Growth of Pseudomonas fluorescens in nutrient broth” value (Pseudomonas fluorescens; Time 0 days) was 130, the “Growth of Pseudomonas fluorescens in nutrient broth” value (Pseudomonas fluorescens; Time 0.25 days) was 160 and the “Growth of Pseudomonas fluorescens in nutrient broth” value (Pseudomonas fluorescens; Time 1 day) was 6.2 × 10^7. The “Growth of Pseudomonas fluorescens in nutrient broth” value (Pseudomonas fluorescens; Time 4 days) was 8.1 × 10^7, the “Growth of Pseudomonas fluorescens in nutrient broth” value (Pseudomonas fluorescens; Time 6 days) was 5.1 × 10^7 and the “effect on the growth of Pseudomonas fluorescens” value (Pseudomonas fluorescens) was “did not differ from the control”.

With `N[C@@H](Cc1c[nH]cn1)C(=O)O` [Histidine, L-histidine] the “effect of chelating agent” value ([1]; pH 7.4, 25° C.) was “some inhibition”.

For `O=P(O)(O)O[C@H]1[C@H](OP(=O)(O)O)[C@@H](OP(=O)(O)O)[C@H](OP(=O)(O)O)[C@@H](OP(=O)(O)O)[C@H]1OP(=O)(O)O` [Phytic acid, phytic acid], the “effect of chelating agent” value ([1]; pH 7.4, 25° C.) was “slightly slower than the control”.

For `O=C1O[C@H]([C@@H](O)CO)C(O)=C1O` [ascorbic acid], the “reducing agent in copper-mediated oxygen removal” value (“reducing agent” for short) ([1]; pH 7.4, 25° C.) was “most efficient reducing agent”.

In the case of `O=S(=O)([O-])[O-].[Cu+2]` [copper sulfate], the “oxygen utilization by one component alone” value [1] is reported as “No oxygen utilization”.

With `N[C@@H](CS)C(=O)O` [cysteine] the “reducing agent” value ([1]; pH 7.4, 25° C.) was “more reactive than sulfite”.

In the case of `NCC(=O)O` [glycine], the “effect of chelating agent” value ([1]; pH 7.4, 25° C.) is reported as “faster than that of the control” and the “effect of protein on the rate of oxygen removal by Oxysorb” value [1] is reported as “diminished this protein effect”.

In the case of `CC(O)CO` (centres unmarked) [propylene glycol], the “effect of freezing point depressant on the rate of oxygen removal” value ([1]; 50 micromolar copper sulfate, 1 mM sodium ascorbate, pH 7.4, 25° C.) is reported as “not affected significantly”.

For `O=S([O-])O.[Na+]` [sodium bisulfite], the “browning of pureed potato” value [2] was “this browning does not occur” and the “effect on chemical and microbiological events in potatoes stored in water” value [3] was “no effect at all”.

In the case of `O=S([O-])[O-].[Na+].[Na+]` [sulfite, sodium sulfite], the “reducing agent” value ([1]; pH 7.4, 25° C.) is reported as “more reactive than catechol”.

For catalase, the “effect on oxidation of ascorbic acid in the presence of Cu^2+” value [4] was “inhibition”.

For copper gluconate [Cu^2+], the “Growth of E. coli in nutrient broth” value (E. coli; Time 0 days) was 510, the “Growth of E. coli in nutrient broth” value (E. coli; Time 0.25 days) was 3100 and the “Growth of E. coli in nutrient broth” value (E. coli; Time 1 day) was 4.7 × 10^7. For the same molecule, the “Growth of E. coli in nutrient broth” value (E. coli; Time 2 days) was 4.8 × 10^7, the “Growth of E. coli in nutrient broth” value (E. coli; Time 5 days) was 7.3 × 10^6 and the “effect on the growth of E. coli” value (E. coli; [5]) was “further suppressed growth”. The “effect on the growth of E. coli” value (E. coli; sealed tubes, nutrient broth) was “reduced both the growth rate and the maximum population”, the “Growth of Pseudomonas fluorescens in nutrient broth” value (Pseudomonas fluorescens; Time 0 days) was 140 and the “Growth of Pseudomonas fluorescens in nutrient broth” value (Pseudomonas fluorescens; Time 0.25 days) was 180. For the same molecule, the “Growth of Pseudomonas fluorescens in nutrient broth” value (Pseudomonas fluorescens; Time 1 day) was 9.6 × 10^7, the “Growth of Pseudomonas fluorescens in nutrient broth” value (Pseudomonas fluorescens; Time 6 days) was 1.6 × 10^8 and the “effect on yeast growth” value (yeast) was “no toxicity”. For the same molecule, the “transition metal as catalyst of oxygen removal” value ([1]; 100 micromolar metal, 10 mM ascorbic acid, 50 mM Tris pH 7.4) was “best catalyst”.

For superoxide dismutase, the “effect on oxidation of ascorbic acid in the presence of Cu^2+” value [4] was “substantial acceleration”.

B1: ovalbumin: protein added to the Oxysorb system; binds copper with high affinity (protein, UniProt P01012 2-386, looked up)
Ovalbumin: GSIGAASMEFCFDVFKELKVHHANENIFYCPIAIMSALAMVYLGAKDSTRTQINKVVRFDKLPGFGDSIEAQCGTSVNVHSSLRDILNQITKPNDVYSFSLASRLYAEERYPILPEYLQCVKELYRGGLEPINFQTAADQARELINSWVESQTNGIIRNVLQPSSVDSQTAMVLVNAIVFKGLWEKAFKDEDTQAMPFRVTEQESKPVQMMYQIGLFRVASMASEKMKILELPFASGTMSMLVLLPDEVSGLEQLESIINFEKLTEWTSSNVMEERKIKVYLPRMKMEEKYNLTSVLMAMGITDVFSSSANLSGISSAESLKISQAVHAAHAEINEAGREVVGSAEAGVDAASVSEEFRADHPFLFCIKHIATNAVLFFGRCVSP
For B1, the “effect of protein on the rate of oxygen removal by Oxysorb” value [1] was “greatly decreases the rate of oxygen removal”.
